Test system: Tie2 in lung, kidney, liver homogenates
Test: in vivo Tie2 phosphorylation in liver, lungs, kidneys
Parameters: species or system mouse
Description: Tumor-free mice were treated for 1 week with either vehicle, VT (250 ng/2 days), SU (60 mg/kg/day), or VT+SU and then sacrificed 5 h after their last doses of treatment. Tissue homogenates derived from EC-rich organs (livers, lungs, kidneys) were subjected to Tie2 immunoprecipitation and then immunoblotted for phosphorylated Tie2 (Fig8: ‘p-Tie2’) or total Tie2 (Fig8: ‘Tie2’).
Figure 8 In vivo Vasculotide treatments: effects on Tie2 receptor phosphorylation in vascular-rich organs (liver, lungs, and kidneys) • Healthy non-tumor-bearing mice (n = 8–9 per group) were treated for 1 week with vehicle (Veh); Vasculotide 250 ng/2 days IP (VT); sunitinib 60 mg/kg/day PO (SU); or VT + SU. Tie2 immunoprecipitates from lung, kidney, or liver homogenates were pooled from two mice per treatment group and immunoblotted with an anti-Tie2 antibody (‘Tie2’) or an anti-phosphotyrosine antibody (‘p-Tie2’). • Densitometry analysis of immunoblots from (A). pTie2/Tie2 ratios were internally normalized to the vehicle group within each blot. Means ± SEM and P values (unpaired t-tests) are depicted. Source data are available online for this figure.
5. Bioluminescence imaging (BI) of tumor burden
For in vivo BI: Mice were injected intraperitoneally with 150mg/kg luciferin (Promega) 10 minutes prior to and anesthetized with isofluorane just before luminescent pseudocolor imaging (uniform settings: CCD camera locked at -105 °C, exposure=60s, f/1, subject size=1.5cm, bin=8, FOV=23.2cm, full image correction) using the IVIS 200 Imaging System (Caliper/PerkinElmer). Using the Living Image software (v2.50.1, Xenogen), weekly images were analyzed under uniform color range on grayscale photographic overlay. Total fluxes (photons/sec) were quantified within consistent regions of interest and statistically compared ideally at a timepoint before any deaths have occurred. […]
Quantification procedure involved visual survey of entire tissue sections and tallying of DAB-stained metastatic nodules sizes (# cells) at 20-40X on a Leica DM LB2 Microscope. […]

Row | Compound | Tie2 phosphorylation, sunitinib effect (SU 60 mg/kg/day, stated in Discussion) | ratio of phosphorylated Tie2 relative to total Tie2 (pTie2/Tie2) (1 week, VT 250 ng/2 days IP, SU 60 mg/kg/day PO or VT + SU, liver, lungs, kidneys, n = 8–9, Fig8) | lung-specific pTie2/Tie2 vs. vehicle (VT 250 ng/2 days IP, 1 week, unpaired t-test, Fig8)
1 | CCN(CC)CCNC(=O)c1c(C)[nH]c(/C=C2\C(=O)Nc3ccc(F)cc32)c1C [sunitinib, reference compound] | inhibition of Tie2 phosphorylation |  | 
2 | CHHHRHSF [Vasculotide, 4-armed maleimide-functionalized polyethylene glycol (PEG) backbone to link together four cysteine-capped T7 peptides, that is, CHHHRHSF] |  | did not increase the ratio of phosphorylated Tie2 relative to total Tie2 | significantly lower

From PMC4459817, “Vasculotide reduces endothelial permeability and tumor cell extravasation in the absence of binding to or agonistic activation of Tie2” (EMBO Molecular Medicine, 2015)
